Literature values, collected in patent US9675603B2, “Solid pharmaceutical compositions of ppary modulator” (InteKrin Therapeutics, Inc., priority 2010, dated 2017).

O=S(=O)(Nc1cc(Cl)c(Oc2cnc3ccccc3c2)c(Cl)c1)c1ccc(Cl)cc1Cl.O=S(=O)(O)c1ccccc1 [besylate salt of compound 101, 2,4-Dichloro-N-[3,5-dichloro-4-(quinolin-3-yloxy)-phenyl]-benzenesulfonamide benzenesulfonate salt]
Stability and hygroscopic properties (compared to other salts of compound 101, U.S. Pat. No. 7,223,761 B2): superior stability and hygroscopic properties
Solubility (in aqueous solvents and in most organic solvents): sparingly soluble
